In patent publication US6967244B1 (priority 1988, dated 2005):
“Also recorded” adds a separate entry of the source. Like-named read-outs stand apart in the source and are kept apart here.

Experiments:
[1] = biological target: T1, nAChR formed after the injection of alpha2 and beta2 mRNAs (Rattus norvegicus, UniProt P12389+P12390); assay type: cell-based
T1 construct: only the HYP16 clone contains an open reading frame for the entire alpha2 protein; expressed in transfected cells; host or cells: Xenopus oocytes injected with in vitro transcribed mRNA
Protocol: (§1) Mature Xenopus laevis (Xenopus I, Madison, Wis.) were used as the source of oocytes. Oocytes were treated with 1 mg/ml type II collagenase (Sigma Chemical Co., St. Louis, Mo.) for two hours at room temperature. The ovarian epithelium and follicle cells were then removed by manual dissection. Each oocyte was injected with 0.5 to 5 ng of RNA transcribed and capped with diguanosine triphosphate in vitro, in a 50 nl volume of water. Injected oocytes were incubated in Barth's saline at 20° C. prior to electrophysiological recordings.
(§2) Recordings were obtained from oocytes placed in a groove at the base of a narrow perspex chamber of 0.5 ml volume. Oocytes were perfused at up to 40 ml/min. with a control solution that consisted of 10 mM HEPES (pH 7.2), 115 mM NaCl, 1.8 mM CaCl2 2.5 mM KCl, and […] atropine. Then oocytes were perfused with agonists or antagonists (added to the control perfusing solution), followed by a wash with control solution. Voltage recordings were made with the bridge circuit of the Dagan 8500 voltage clamp unit on oocytes injected 2–7 days previously. The recordings were obtained at room temperature (20–25° C.) with micropipettes filled with 3M KCl. A resting potential more negative than −30 mV was required for inclusion of a particular oocyte in these studies.
The PCX49 clone is derived from the beta2 gene and is believed to encode a non-agonist-binding subunit. (Boulter, et al., 1987; Deneris, et al., 1988). […] We tested whether oocytes injected with either alpha2 (n=22) or beta2 (n=21) mRNA alone would produce a depolarizing response to ACh.

[2] = biological target: T2, receptor from mouse muscle alpha1, gamma, delta and beta2 mRNAs (Mus musculus, UniProt P02716+P04756+P04760); assay type: cell-based, mouse/rat
T2 construct: expressed in transfected cells; host or cells: Xenopus laevis oocytes injected with in vitro transcribed capped RNA
Protocol: (§3) To examine this hypothesis, a test was made to determine whether the beta2 subunit could substitute for one of the mouse muscle receptor subunits. This was done by injecting into Xenopus oocytes various combinations of mRNA encoding the beta2 subunit and the muscle receptor subunits (α1, β1, […], and δ).
as §1, §2
Experiment 1: Oocytes taken from the same animal were injected at the same time with equivalent amounts of the indicated mRNA combinations. […] Values presented are means±S.E. (n=6).
Values, presented are means±S.E. (n=5). The complete set of mouse muscle mRNAs were not tested in this experiment.

[3] = biological target: T3, alpha4 + beta2 neuronal nicotinic acetylcholine receptor (Rattus norvegicus, UniProt P09483+P12390); assay type: cell-based
T3 construct: linker-coded start (ATG and a few residues from a synthetic EcoRI/HindIII linker) (N); expressed in transfected cells; host or cells: Xenopus laevis oocytes injected with in vitro transcribed capped RNA

[4] = biological target: T4, alpha3 + beta2 neuronal nicotinic acetylcholine receptor (Rattus norvegicus, UniProt P04757+P12390); assay type: cell-based
T4 construct: a complete signal peptide and the entire mature protein; expressed in transfected cells; host or cells: Xenopus laevis oocytes injected with in vitro transcribed capped RNA

[5] = biological target: mouse muscle nicotinic acetylcholine receptor α1β1γδ (Mus musculus, UniProt P02716+P04756+P04760); assay type: cell-based
Protocol: as §3, §1
as §2, with “The recordings were obtained at room temperature (20–25° C.) with micropipettes filled with 3M KCl. A resting potential more negative than −30 mV was required for inclusion of a particular oocyte in these studies.” left out

[6] = biological target: T5, PC12 cell receptor (Rattus norvegicus, UniProt P04757); settings: cited from earlier work
T5 construct: endogenous in cells; host or cells: PC12 (rat pheochromocytoma) cells
T5 sequence (P04757 26-499): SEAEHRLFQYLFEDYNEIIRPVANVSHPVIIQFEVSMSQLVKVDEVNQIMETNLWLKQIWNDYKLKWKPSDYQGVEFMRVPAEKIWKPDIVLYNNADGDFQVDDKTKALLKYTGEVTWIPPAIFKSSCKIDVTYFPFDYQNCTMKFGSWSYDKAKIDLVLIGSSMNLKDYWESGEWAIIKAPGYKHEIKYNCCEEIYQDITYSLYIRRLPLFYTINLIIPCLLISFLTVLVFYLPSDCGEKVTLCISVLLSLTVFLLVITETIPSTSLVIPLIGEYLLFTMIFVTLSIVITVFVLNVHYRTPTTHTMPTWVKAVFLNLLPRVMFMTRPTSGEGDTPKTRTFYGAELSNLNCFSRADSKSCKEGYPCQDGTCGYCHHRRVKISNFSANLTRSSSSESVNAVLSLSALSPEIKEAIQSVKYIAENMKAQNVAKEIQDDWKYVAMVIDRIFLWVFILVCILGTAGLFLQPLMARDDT

T1 sequence (P12390 25-500): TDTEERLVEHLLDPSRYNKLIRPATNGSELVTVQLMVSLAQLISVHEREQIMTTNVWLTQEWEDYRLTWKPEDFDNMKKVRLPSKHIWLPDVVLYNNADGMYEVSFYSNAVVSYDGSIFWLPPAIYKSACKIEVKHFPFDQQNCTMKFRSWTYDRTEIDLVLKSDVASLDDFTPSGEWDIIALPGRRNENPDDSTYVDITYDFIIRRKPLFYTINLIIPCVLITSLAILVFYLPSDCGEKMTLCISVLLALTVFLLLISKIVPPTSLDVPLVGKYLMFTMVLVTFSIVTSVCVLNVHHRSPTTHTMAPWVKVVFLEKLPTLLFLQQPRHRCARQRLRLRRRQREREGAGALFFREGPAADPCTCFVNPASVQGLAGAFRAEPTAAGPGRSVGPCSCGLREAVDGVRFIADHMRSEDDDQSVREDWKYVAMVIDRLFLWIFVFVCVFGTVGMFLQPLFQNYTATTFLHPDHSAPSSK
T1 sequence (P12389 28-511): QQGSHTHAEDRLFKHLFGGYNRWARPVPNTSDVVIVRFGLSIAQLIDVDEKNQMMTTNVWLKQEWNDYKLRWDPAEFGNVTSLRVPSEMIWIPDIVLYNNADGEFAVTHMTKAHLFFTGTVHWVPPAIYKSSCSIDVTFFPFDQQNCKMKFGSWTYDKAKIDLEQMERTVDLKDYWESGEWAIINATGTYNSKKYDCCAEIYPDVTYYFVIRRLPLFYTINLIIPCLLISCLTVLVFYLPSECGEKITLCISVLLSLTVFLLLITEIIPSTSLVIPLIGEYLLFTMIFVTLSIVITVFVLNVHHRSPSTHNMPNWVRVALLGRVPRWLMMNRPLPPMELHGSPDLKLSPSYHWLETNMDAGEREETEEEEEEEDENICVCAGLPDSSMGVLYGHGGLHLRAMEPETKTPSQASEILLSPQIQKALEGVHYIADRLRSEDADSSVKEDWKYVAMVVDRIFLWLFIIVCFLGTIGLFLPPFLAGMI
T4 sequence (P12390 25-500): as the sequence (P12390 25-500) above
T4 sequence (P04757 26-499): as the sequence (P04757 26-499) above
T3 sequence (P12390 25-500): as the sequence (P12390 25-500) above
T3 sequence (P09483 31-630): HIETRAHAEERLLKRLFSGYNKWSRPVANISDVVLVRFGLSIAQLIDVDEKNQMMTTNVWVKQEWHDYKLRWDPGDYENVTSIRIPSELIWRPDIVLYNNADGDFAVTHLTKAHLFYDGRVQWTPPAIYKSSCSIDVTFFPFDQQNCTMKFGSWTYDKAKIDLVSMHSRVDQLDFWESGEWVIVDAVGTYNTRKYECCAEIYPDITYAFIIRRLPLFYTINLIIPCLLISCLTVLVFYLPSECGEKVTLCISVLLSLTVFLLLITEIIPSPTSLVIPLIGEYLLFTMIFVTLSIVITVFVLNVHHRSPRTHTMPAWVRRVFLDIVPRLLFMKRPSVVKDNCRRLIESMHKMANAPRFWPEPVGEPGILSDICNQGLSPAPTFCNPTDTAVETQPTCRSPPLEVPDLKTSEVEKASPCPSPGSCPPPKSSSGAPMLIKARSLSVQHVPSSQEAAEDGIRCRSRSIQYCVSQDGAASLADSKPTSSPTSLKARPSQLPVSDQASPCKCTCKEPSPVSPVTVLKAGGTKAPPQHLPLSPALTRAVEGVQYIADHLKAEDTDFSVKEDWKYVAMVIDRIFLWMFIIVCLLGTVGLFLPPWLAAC
T2 sequence (P04760 23-519): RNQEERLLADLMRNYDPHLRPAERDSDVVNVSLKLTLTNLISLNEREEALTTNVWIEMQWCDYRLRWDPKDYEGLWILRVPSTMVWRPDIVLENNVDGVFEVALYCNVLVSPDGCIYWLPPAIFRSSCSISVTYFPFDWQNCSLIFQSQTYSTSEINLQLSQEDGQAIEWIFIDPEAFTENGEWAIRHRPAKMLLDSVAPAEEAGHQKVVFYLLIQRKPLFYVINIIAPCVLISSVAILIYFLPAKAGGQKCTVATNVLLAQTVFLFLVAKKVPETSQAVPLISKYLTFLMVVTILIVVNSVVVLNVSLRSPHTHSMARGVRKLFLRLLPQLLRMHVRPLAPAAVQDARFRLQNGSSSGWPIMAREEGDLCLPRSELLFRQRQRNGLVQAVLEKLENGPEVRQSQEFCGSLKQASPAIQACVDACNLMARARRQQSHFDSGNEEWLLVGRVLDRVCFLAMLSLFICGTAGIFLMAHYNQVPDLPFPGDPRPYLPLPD
T2 sequence (P12390 25-500, further chain): as the sequence (P12390 25-500) above
T2 sequence (P04756 21-457): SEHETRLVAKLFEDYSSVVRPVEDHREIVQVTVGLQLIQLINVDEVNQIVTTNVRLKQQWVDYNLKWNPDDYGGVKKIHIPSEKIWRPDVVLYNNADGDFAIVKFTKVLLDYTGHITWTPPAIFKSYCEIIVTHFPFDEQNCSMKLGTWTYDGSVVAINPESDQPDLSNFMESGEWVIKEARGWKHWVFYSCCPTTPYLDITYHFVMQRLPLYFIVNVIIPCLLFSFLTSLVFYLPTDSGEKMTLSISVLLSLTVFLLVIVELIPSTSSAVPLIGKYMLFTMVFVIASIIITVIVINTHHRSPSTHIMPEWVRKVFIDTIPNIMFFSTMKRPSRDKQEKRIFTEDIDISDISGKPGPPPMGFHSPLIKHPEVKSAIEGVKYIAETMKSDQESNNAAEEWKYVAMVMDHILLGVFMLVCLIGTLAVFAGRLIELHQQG
T2 sequence (P02716 25-520): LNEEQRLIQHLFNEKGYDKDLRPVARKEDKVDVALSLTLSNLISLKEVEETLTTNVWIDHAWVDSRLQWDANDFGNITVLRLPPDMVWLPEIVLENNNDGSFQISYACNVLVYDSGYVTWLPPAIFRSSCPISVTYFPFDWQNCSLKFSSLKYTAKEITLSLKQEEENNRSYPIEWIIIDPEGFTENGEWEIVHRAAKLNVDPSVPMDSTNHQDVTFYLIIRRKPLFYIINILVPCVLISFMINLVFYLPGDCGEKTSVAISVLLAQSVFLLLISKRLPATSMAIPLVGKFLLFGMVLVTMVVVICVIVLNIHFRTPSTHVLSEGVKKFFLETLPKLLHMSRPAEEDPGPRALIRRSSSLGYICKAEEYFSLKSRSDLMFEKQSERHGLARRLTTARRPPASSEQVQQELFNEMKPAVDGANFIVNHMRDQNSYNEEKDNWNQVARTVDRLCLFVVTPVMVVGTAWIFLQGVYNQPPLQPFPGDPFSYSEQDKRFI
Sequence of mouse muscle nicotinic acetylcholine receptor α1β1γδ (P04760 23-519): as the sequence (P04760 23-519) above
Sequence of mouse muscle nicotinic acetylcholine receptor α1β1γδ (P09690 24-501, further chain): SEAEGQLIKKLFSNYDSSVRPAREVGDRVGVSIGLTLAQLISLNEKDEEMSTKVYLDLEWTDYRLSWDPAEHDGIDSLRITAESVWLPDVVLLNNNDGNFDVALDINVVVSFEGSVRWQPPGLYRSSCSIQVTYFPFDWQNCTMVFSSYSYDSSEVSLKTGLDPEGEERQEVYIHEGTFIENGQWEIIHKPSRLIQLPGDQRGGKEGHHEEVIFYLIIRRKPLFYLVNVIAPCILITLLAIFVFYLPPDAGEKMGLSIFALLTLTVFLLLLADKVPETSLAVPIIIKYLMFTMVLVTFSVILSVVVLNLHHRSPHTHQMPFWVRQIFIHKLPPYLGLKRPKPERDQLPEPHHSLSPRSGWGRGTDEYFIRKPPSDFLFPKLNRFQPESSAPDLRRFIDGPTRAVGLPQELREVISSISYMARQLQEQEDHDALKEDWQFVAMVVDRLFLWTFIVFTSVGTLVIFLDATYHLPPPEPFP
Sequence of mouse muscle nicotinic acetylcholine receptor α1β1γδ (P02716 25-520): as the sequence (P02716 25-520) above
Sequence of mouse muscle nicotinic acetylcholine receptor α1β1γδ (P04756 21-457): as the sequence (P04756 21-457) above

## COc1cc2c3cc1Oc1cc(ccc1O)C[C@@H]1c4c(cc(OC)c(O)c4Oc4ccc(cc4)C[C@@H]3N(C)CC2)CC[N+]1(C)C [d-tubocurarine]
[1]
  Blockade of the acetylcholine response by antagonist or toxin: could be blocked
[1]; Ach 5 μM + antagonist 100 μM, n=3
  Δ (mV) Agonist + Antagonist: +2.0 ± 0.4 mV
[2]; alpha1, beta2, gamma, delta mRNAs, 100 mM d-tubocurarine
  Block of depolarizations: blocked

## C[N+](C)(C)CCCCCC[N+](C)(C)C [hexamethonium]
[1]
  Blockade of the acetylcholine response by antagonist or toxin: could be blocked
[1]; Ach 1 μM + antagonist 100 μM, n=4
  Δ (mV) Agonist + Antagonist: +0.4 ± 0.4 mV

## CN1CCCC1c1cccnc1 (centres unmarked) [nicotine]
[3]
  Depolarizing response to nicotine: strong and reproducible membrane depolarizations; also recorded: depolarizing responses
[4]
  Depolarizing response to nicotine: strong and reproducible membrane depolarizations; also recorded: depolarizing responses
[1]
  Depolarizing response to nicotine: strong and reproducible depolarizing responses; also recorded: elicited a depolarizing response
[2]
  Depolarizations elicited by nicotine: depolarizations could be elicited

## α-bungarotoxin
[5]
  Block of the receptor by toxin: blocked
[3]
  Functional blockade of the acetylcholine response by toxin: resistant
  Δ, mV After Toxin: 32.7 ± 6.4 mV
[4]
  Functional blockade of the acetylcholine response by toxin: neither of these receptors are functionally blocked; also recorded: resistant
  Δ, mV After Toxin: 24.8 ± 3.3 mV
[1]
  Δ, mV After Toxin: +32 ± 2 mV
[2]
  Block of the response to acetylcholine: completely blocked
[6]
  Functional block of the receptor by toxin: neither of these receptors are functionally blocked
